Test results: patent US10799507B2, “5-(7H-pyrrolo[2,3-d]pyrimidin-4-yl)-5-azaspiro[2.5]octane-8-carboxylic acid derivatives as novel JAK kinase inhibitors” (LEO Pharma A/S, priority 2017, dated 2020)

Columns and labels:
Assay type in all cases: biochemical
[1] = molecular target: TYK2 (Homo sapiens (Human), UniProt P29597); experiment: JAK kinase assay (HTRF), TYK2; conditions: catalytic domain, ATP at Km (13 μM)
Method: (§1) Human baculovirus-expressed JAK1, 2, 3 and TYK2 were purchased from Carna Biosciences, Inc. All four purified enzymes contain only the catalytic domain. JAK1 (aa 850-1154) and TYK2 (aa 871-1187) are expressed with an N-terminally fused GST-tag, and JAK2 and JAK3 with an N-terminally fused His-tag.
(§2) Inhibition of phosphorylation of a synthetic peptide was measured in an HTRF-based assay using the TK substrate-Biotin from the Cisbio HTRFKinEASE TK kit. First, 2 μl of TK solution (TK substrate-biotin in kinase buffer [1× enzymatic buffer from HTRFKinEASE TK kit, 1 mM DTT]) is added to a plate containing 1 μl prediluted compound (final assay concentration DMSO: 0.75%). Then, 5 μl kinase-ATP mix (prepared in kinase buffer) is added to the wells and the plates are incubated at RT for 20-30 min. For all four kinases a concentration of ATP that corresponded to the Km for ATP was used. The final concentrations of buffers, substrate, kinase and ATP were: JAK1: 50 mM Hepes buffer pH 7.0, 0.01% BSA, 10 mM MgCl2, 1 mM DTT, 7 μM ATP, 50 nM SEB, 1 μM TK Substrate-Biotin and 5 ng JAK1; JAK2: 50 mM Hepes buffer pH 7.0, 0.01% BSA, 5 mM MgCl2, 1 mM DTT, 4 μM ATP, 1 μM TK Substrate-Biotin and 0.1 ng JAK2; JAK3: 50 mM Hepes buffer pH 7.0, 0.01% BSA, 5 mM MgCl2, 1 mM DTT, 2 μM ATP, 1 μM TK Substrate-Biotin and 0.3 ng JAK3; TYK2: 50 mM Hepes buffer pH 7.0, 0.01% BSA, 5 mM MgCl2, 1 mM DTT, 13 μM ATP, 50 nM SEB, 1 μM TK Substrate-Biotin and 0.8 ng TYK2. Thereafter, the kinase reaction is stopped by adding 4 μl detection mix (final concentrations: 50 mM Hepes buffer pH 7.0, 0.01% BSA, 0.8 M KF, 20 mM EDTA, 42 nM Streptavidin-XL665 and 1:400 STK Ab Cryptate) and the plates are incubated overnight in the dark. The HTRF signal is read using an Envision plate reader.
(§3) In Table 1 selected JAK kinase inhibitory activities are listed along with analytical tR and observed M+H^+ data (UPLC-MS method 7).

[2] = molecular target: JAK1 (Homo sapiens (Human), UniProt P23458); experiment: JAK kinase assay (HTRF), JAK1; conditions: catalytic domain, ATP at Km (7 μM)
JAK1, sequence (P23458 850-1154): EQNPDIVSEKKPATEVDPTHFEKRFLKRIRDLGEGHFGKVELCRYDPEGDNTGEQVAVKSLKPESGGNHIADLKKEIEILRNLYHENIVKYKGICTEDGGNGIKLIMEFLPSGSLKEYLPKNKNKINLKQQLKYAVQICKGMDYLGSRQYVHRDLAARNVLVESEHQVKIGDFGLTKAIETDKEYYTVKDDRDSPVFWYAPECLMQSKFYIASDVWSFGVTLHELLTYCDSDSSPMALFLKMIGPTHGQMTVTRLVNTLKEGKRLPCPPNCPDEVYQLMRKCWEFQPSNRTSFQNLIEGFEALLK
Method: as §1, §2

[3] = molecular target: JAK2 (Homo sapiens (Human), UniProt O60674); experiment: JAK kinase assay (HTRF), JAK2; conditions: catalytic domain, ATP at Km (4 μM)
JAK2, sequence (O60674 849-1124): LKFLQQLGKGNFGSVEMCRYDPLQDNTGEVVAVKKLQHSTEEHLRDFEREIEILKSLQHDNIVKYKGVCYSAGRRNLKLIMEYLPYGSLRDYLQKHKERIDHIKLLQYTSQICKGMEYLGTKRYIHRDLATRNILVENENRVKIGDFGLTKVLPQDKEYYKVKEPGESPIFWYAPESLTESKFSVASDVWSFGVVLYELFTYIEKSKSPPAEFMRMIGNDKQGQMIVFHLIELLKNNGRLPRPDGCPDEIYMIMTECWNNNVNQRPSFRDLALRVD
Method: as §1, §2

[4] = molecular target: JAK3 (Homo sapiens (Human), UniProt P52333); experiment: JAK kinase assay (HTRF), JAK3; conditions: catalytic domain, ATP at Km (2 μM)
JAK3, sequence (P52333 822-1111): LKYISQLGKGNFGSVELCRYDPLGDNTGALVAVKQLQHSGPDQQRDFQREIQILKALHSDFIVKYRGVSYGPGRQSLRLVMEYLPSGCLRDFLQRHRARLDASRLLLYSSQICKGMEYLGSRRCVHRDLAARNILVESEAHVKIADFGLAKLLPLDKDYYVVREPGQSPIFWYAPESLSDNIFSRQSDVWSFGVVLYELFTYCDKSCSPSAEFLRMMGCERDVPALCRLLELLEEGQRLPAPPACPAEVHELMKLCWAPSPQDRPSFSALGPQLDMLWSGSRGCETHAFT
Method: as §1, §2, §3

TYK2, sequence (P29597 871-1187): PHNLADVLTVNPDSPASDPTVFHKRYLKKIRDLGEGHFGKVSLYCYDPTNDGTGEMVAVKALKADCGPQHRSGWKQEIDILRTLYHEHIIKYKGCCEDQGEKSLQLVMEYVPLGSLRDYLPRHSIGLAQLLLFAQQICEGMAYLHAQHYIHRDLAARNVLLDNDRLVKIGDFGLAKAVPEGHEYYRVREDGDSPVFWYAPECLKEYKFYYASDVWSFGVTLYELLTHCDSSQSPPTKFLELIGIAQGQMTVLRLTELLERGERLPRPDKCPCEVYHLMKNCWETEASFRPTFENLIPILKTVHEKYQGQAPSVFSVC

| Compound | EC50 [1] [µM] | EC50 [2] [µM] | EC50 [3] [µM] | EC50 [4] [µM] |
| --- | --- | --- | --- | --- |
| O=C(N[C@@H](CO)c1ccc(F)cc1CO)[C@H]1CCN(c2ncnc3[nH]ccc23)CC12CC2 [Example 100, (8S)-N-[(1R)-1-[4-fluoro-2-(hydroxymethyl)phenyl]-2-hydroxy-ethyl]-5-(7H-pyrrolo[2,3-d]pyrimidin-4-yl)-5-azaspiro[2.5]octane-8-carboxamide] | 0.248 | 0.0091 | 0.0373 | 0.0719 |
| C[C@@H](NC(=O)[C@H]1CCN(c2ncnc3[nH]ccc23)CC12CC2)c1ccc(C#N)cc1F [Example 101, (8S)-N-[(1R)-1-(4-cyano-2-fluoro-phenyl)ethyl]-5-(7H-pyrrolo[2,3-d]pyrimidin-4-yl)-5-azaspiro[2.5]octane-8-carboxamide] | 0.516 | 0.0093 | 0.0728 | 0.157 |
| N#C[C@@H]1C[C@H]1CNC(=O)C1CCN(c2ncnc3[nH]ccc23)CC12CC2 (stereo partly drawn) [Example 102, N-[[(1R,2R)-2-cyanocyclopropyl]methyl]-5-(7H-pyrrolo[2,3-d]pyrimidin-4-yl)-5-azaspiro[2.5]octane-8-carboxamide] | 0.531 | 0.0095 | 0.0262 | 0.035 |
| C[C@H](NC(=O)[C@H]1CCN(c2ncnc3[nH]ccc23)CC12CC2)[C@@H](O)c1ccccn1 [Example 104, (8S)-N-[(1S,2R)-2-hydroxy-1-methyl-2-(2-pyridyl)ethyl]-5-(7H-pyrrolo[2,3-d]pyrimidin-4-yl)-5-azaspiro[2.5]octane-8-carboxamide] | 0.149 | 0.0101 | 0.0303 | 0.163 |
| N#Cc1cccc([C@H](O)CNC(=O)[C@H]2CCN(c3ncnc4[nH]ccc34)CC23CC3)c1 [Example 106, (8S)-N-[(2S)-2-(3-cyanophenyl)-2-hydroxy-ethyl]-5-(7H-pyrrolo[2,3-d]pyrimidin-4-yl)-5-azaspiro[2.5]octane-8-carboxamide] | 0.11 | 0.0102 | 0.0252 | 0.0447 |
| C[C@H](NC(=O)[C@H]1CCN(c2ncnc3[nH]ccc23)CC12CC2)[C@H](O)c1ccc(F)cn1 [Example 107, (8S)-N-[(1S,2S)-2-(5-fluoro-2-pyridyl)-2-hydroxy-1-methyl-ethyl]-5-(7H-pyrrolo[2,3-d]pyrimidin-4-yl)-5-azaspiro[2.5]octane-8-carboxamide] | 0.125 | 0.0103 | 0.0145 | 0.0577 |
| N#Cc1ccc([C@@H](CO)NC(=O)[C@H]2CCN(c3ncnc4[nH]ccc34)CC23CC3)nc1 [Example 108, (8S)-N-[(1S)-1-(5-cyano-2-pyridyl)-2-hydroxy-ethyl]-5-(7H-pyrrolo[2,3-d]pyrimidin-4-yl)-5-azaspiro[2.5]octane-8-carboxamide] | 0.347 | 0.0103 | 0.0482 | 0.0851 |
| COc1cc(F)ccc1[C@H](CO)NC(=O)[C@H]1CCN(c2ncnc3[nH]ccc23)CC12CC2 [Example 109, (8S)-N-[(1R)-1-(4-fluoro-2-methoxy-phenyl)-2-hydroxy-ethyl]-5-(7H-pyrrolo[2,3-d]pyrimidin-4-yl)-5-azaspiro[2.5]octane-8-carboxamide] | 0.243 | 0.0105 | 0.0245 | 0.111 |
| N#CCC1(CNC(=O)C2CCN(c3ncnc4[nH]ccc34)CC23CC3)CC1 (stereo not shown) [Example 112, N-[[1-(cyanomethyl)cyclopropyl]methyl]-5-(7H-pyrrolo[2,3-d]pyrimidin-4-yl)-5-azaspiro[2.5]octane-8-carboxamide] | 0.518 | 0.0113 | 0.0327 | 0.046 |
| O=C(NCCc1ccccc1)C1CCN(c2ncnc3[nH]ccc23)CC12CC2 (stereo not shown) [Example 114, N-phenethyl-5-(7H-pyrrolo[2,3-d]pyrimidin-4-yl)-5-azaspiro[2.5]octane-8-carboxamide] | 0.858 | 0.0117 | 0.037 | 0.0648 |
| O=C(NCC1CCC1)C1CCN(c2ncnc3[nH]ccc23)CC12CC2 (stereo not shown) [Example 115, N-(cyclobutylmethyl)-5-(7H-pyrrolo[2,3-d]pyrimidin-4-yl)-5-azaspiro[2.5]octane-8-carboxamide] | 0.364 | 0.0122 | 0.0236 | 0.0924 |
| O=C(N[C@H](CO)C(=O)OCC1(CO)CC1)[C@H]1CCN(c2ncnc3[nH]ccc23)CC12CC2 [Example 116, [1-(hydroxymethyl)cyclopropyl]methyl (2R)-3-hydroxy-2-[[(8S)-5-(7H-pyrrolo[2,3-d]pyrimidin-4-yl)-5-azaspiro[2.5]octane-8-carbonyl]amino]propanoate] | 0.21 | 0.0124 | 0.0247 | 0.0478 |
| CC(CO)(NC(=O)C1CCN(c2ncnc3[nH]ccc23)CC12CC2)c1ccccc1 (stereo not shown) [Example 118, N-(2-hydroxy-1-methyl-1-phenyl-ethyl)-5-(7H-pyrrolo[2,3-d]pyrimidin-4-yl)-5-azaspiro[2.5]octane-8-carboxamide] | 0.832 | 0.0131 | 0.0243 | 0.0777 |
| COc1cccc(CNC(=O)C2CCN(c3ncnc4[nH]ccc34)CC23CC3)c1 (stereo not shown) [Example 119, N-[(3-methoxyphenyl)methyl]-5-(7H-pyrrolo[2,3-d]pyrimidin-4-yl)-5-azaspiro[2.5]octane-8-carboxamide] | 0.539 | 0.0134 | 0.0368 | 0.0711 |
| COc1cc(C#N)ccc1[C@H](CO)NC(=O)[C@H]1CCN(c2ncnc3[nH]ccc23)CC12CC2 [Example 120, (8S)-N-[(1R)-1-(4-cyano-2-methoxy-phenyl)-2-hydroxy-ethyl]-5-(7H-pyrrolo[2,3-d]pyrimidin-4-yl)-5-azaspiro[2.5]octane-8-carboxamide] | 0.392 | 0.0137 | 0.0402 | 0.154 |
| CCc1cc(C#N)ccc1[C@@H](C)NC(=O)[C@H]1CCN(c2ncnc3[nH]ccc23)CC12CC2 [Example 121, (8S)-N-[(1R)-1-(4-cyano-2-ethyl-phenyl)ethyl]-5-(7H-pyrrolo[2,3-d]pyrimidin-4-yl)-5-azaspiro[2.5]octane-8-carboxamide] | 0.289 | 0.0153 | 0.0447 | 0.141 |
| O=C(N[C@@H](CO)c1ccccn1)[C@H]1CCN(c2ncnc3[nH]ccc23)CC12CC2 [Example 122, (8S)-N-[(1R)-2-hydroxy-1-(2-pyridyl)ethyl]-5-(7H-pyrrolo[2,3-d]pyrimidin-4-yl)-5-azaspiro[2.5]octane-8-carboxamide] | 0.203 | 0.0163 | 0.0373 | 0.153 |
| C[C@H](NC(=O)[C@H]1CCN(c2ncnc3[nH]ccc23)CC12CC2)[C@H](O)c1ccc(C#N)cc1 [Example 126, (8S)-N-[(1S,2R)-2-(4-cyanophenyl)-2-hydroxy-1-methyl-ethyl]-5-(7H-pyrrolo[2,3-d]pyrimidin-4-yl)-5-azaspiro[2.5]octane-8-carboxamide] | 0.987 | 0.0195 | 0.0257 | 0.0298 |
| O=C(NCc1cccnc1)C1CCN(c2ncnc3[nH]ccc23)CC12CC2 (stereo not shown) [Example 128, N-(3-pyridylmethyl)-5-(7H-pyrrolo[2,3-d]pyrimidin-4-yl)-5-azaspiro[2.5]octane-8-carboxamide] | 1.41 | 0.0205 | 0.0382 | 0.0586 |
